Measured values: patent publication US20190202823A1, “N-SULFONYLATED PYRAZOLO[3,4-b]PYRIDIN-6-CARBOXAMIDES AND METHOD OF USE” (AbbVie S.à.r.l., priority 2015, published 2019)
Like-named read-outs stand apart in the source and are kept apart here.

Tests used:
ΔF508-CFTR = target: T1, ΔF508-CFTR (Homo sapiens, UniProt P13569, DEL508-508); assay: CFTR cell surface levels using HRP-tagged ΔF508-CFTR expressing CFBE cells, intrinsic corrector capacity; format: cell-based; set-up: % Activation: concentration or dose not given beside the values; settings: HRP-tagged ΔF508-CFTR expressing CFBE41o- cells; compounds alone (intrinsic corrector capacity); 20 hours at 33° C.
T1 construct: host or cells: CFBE41o- cells, doxycycline-inducible expression
From the text: Measuring CFTR Cell Surface Levels Using HRP-Tagged ΔF508-CFTR Expressing CFBE Cells
The HRP-tagged ΔF508-CFTR cell assay measures the expression of CFTR-ΔF508 at the plasma membrane. CFTR-ΔF508 has a folding defect leading to absence of protein at the plasma membrane. This assay is used to evaluate the capacity of compounds to increase the expression of CFTR-ΔF508 at the plasma membrane. […] When HRP-tagged ΔF508-CFTR is present at the plasma membrane, the HRP enzyme activity can be measured. The amount of CFTR-ΔF508 that can be rescued to the plasma membrane is correlated with the amount of functional enzyme that can be measured.
There are several ways to measure the capacity of compounds to rescue CFTR-ΔF508 to the plasma membrane; either compounds are evaluated on their own and the impact on plasma membrane levels is measured or compounds are evaluated in combination with a co-corrector, i.e. a compound that rescues CFTR-ΔF508 to the plasma membrane but rescue can be enhanced by addition of compounds due to a complementary mode of action.
Activity of Compounds for their Intrinsic Corrector Capacity:
On day four, L test compounds diluted in PBS were added to the plates at a final DMSO concentration of 0.1%. All compound plates contained negative controls (DMSO) and positive controls ([…] corrector, 3-[(2R,4R)-4-({[1-(2,2-difluoro-1,3-benzodioxol-5-yl)cyclopropyl]carbonyl}amino)-7-methoxy-3,4-dihydro-2H-chromen-2-yl]benzoic acid). Cell plates were incubated at 33° C., 5% CO2 for 20 hours. […] After incubation for 15 minutes in the dark, chemiluminescence was measured using a plate reader (EnVision®, Perkin Elmer). Raw data were normalized to percentage activity values using the equation: 100×(Sample−Negative control)/(Positive control−Negative Control).

CFTR ΔF508 = target: T2, CFTR ΔF508 (Homo sapiens, UniProt P13569, DEL508-508); assay: Chronic TECC assay, primary bronchial epithelial cells from CF patients homozygous for CFTR ΔF508; format: cell-based; settings: for activity at 3 µM: read-out: % Activity at 3 μM (AUC**); for EC50: chronic TECC, with co-corrector and potentiator, AUC = full area under the curve upon forskolin stimulation
T2 construct: bronchial epithelial cells isolated from CF patients homozygous for the CFTR ΔF508 mutation; McGill University; Asterand; University of North Carolina hAEC-CF; host or cells: primary human bronchial epithelial cells from CF patients homozygous for ΔF508
Procedure: The TECC (Tranepithelial Clamp Circuit, EP-design) assay measures the functionality of the cystic fibrosis Transmembrane Conductance regulator (CFTR) by measuring the short circuit current (Isc) generated over the basolateral and apical membrane of lung epithelial cells. In TECC the transepithelial potential PD and transepithelial resistance (Rt) are measured in an open circuit and transformed to Ieq using Ohm's law. 24 Wells can be measured simultaneously allowing a higher throughput compared to Ussing chambers.
For this purpose, bronchial epithelial cells isolated from CF patients homozygous for the CFTR ΔF508 mutation (hAEC-CF, Epithelix, Geneva, Switzerland; McGill University, Montreal, Qc; Asterand, Detroit, Mich.; University of North Carolina, Chapel Hill, N.C.) are plated on type IV collagen-coated Transwell® supports (Costar).
For electrophysiological recording of the “chronic” experiments, the human airway epithelia are mounted in the TECC heating plate for electrophysiological measurement and kept at 37° C. The epithelia are bathed in a NaCl-Ringer solution (120 mM NaCl, 25 mM NaHCO3, 1.2 mM CaCl2), 1.2 mM MgCl2, 0.8 mM KH2PO4, 0.8 mM K2HP04, pH 7.4, 5 mM glucose) on both the basolateral and apical sides. Test compounds (corrector, co-corrector, 4-[(2R,4R)-4-({[1-(2,2-difluoro-1,3-benzodioxol-5-yl)cyclopropyl]carbonyl}amino)-7-(difluoromethoxy)-3,4-dihydro-2H-chromen-2-yl]benzoic acid, and potentiator, N-(3-carbamoyl-5,5,7,7-tetramethyl-4,7-dihydro-5H-thieno[2,3-c]pyran-2-yl)-1H-pyrazole-5-carboxamide), are re-added to the recording solution prior to measurement. […] Apical amiloride is used to inhibit the endogenous ENaC currents while forskolin is applied on both apical and basolateral side to stimulate CFTR. Measurements are done during a 20 minute timeframe with recordings every 2 minutes. The increase in Ieq is used as a measure for the increased CFTR activity, EC50 values can be generated by measuring impact of different concentrations of compound on Ieq on primary cells, for this purpose each transwell is treated with a different compound concentration. […] Raw data were normalized to percentage activity values using the equation: 100×(Sample−Negative control)/(Positive control−Negative Control).

[1] = read-out: % Activity at 1 μM (AUC**)

T1 sequence (P13569 with tags, fused parts or gaps DEL508-508): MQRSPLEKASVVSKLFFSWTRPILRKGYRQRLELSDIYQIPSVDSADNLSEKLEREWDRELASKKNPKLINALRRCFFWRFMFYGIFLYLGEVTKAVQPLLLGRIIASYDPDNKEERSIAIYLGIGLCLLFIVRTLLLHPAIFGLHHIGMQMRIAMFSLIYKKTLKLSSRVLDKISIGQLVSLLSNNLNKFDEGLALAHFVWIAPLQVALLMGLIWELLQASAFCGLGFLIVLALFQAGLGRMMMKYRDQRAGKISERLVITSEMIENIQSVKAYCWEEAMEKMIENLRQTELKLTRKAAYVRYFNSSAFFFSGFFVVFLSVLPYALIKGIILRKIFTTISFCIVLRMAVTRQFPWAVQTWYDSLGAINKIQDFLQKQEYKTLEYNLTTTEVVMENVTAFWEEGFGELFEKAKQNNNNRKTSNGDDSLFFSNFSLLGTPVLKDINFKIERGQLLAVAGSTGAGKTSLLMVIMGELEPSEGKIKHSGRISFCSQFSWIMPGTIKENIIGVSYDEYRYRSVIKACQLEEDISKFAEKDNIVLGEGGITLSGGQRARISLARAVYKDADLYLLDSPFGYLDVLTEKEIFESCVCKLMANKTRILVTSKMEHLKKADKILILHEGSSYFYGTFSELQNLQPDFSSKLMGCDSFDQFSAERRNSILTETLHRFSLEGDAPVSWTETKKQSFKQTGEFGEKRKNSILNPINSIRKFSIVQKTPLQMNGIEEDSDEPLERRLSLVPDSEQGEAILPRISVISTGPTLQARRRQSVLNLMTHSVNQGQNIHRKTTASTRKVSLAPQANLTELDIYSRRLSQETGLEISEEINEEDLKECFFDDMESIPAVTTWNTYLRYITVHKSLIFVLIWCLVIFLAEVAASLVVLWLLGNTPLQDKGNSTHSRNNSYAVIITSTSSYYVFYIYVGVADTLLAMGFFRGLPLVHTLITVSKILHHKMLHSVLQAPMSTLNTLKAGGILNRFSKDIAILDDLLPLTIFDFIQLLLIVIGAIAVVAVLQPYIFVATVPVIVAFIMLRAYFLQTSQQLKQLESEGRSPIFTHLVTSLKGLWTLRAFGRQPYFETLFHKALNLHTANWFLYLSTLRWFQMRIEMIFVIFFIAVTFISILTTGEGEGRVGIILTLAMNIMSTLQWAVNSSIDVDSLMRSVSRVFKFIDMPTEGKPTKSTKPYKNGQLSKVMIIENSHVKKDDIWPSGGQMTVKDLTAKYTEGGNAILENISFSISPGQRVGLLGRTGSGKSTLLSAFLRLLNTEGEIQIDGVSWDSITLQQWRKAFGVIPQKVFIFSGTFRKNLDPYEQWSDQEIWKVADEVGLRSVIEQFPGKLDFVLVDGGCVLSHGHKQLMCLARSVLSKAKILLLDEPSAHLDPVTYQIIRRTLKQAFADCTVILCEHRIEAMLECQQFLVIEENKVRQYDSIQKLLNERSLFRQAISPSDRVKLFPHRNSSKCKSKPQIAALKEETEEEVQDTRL
T2 sequence (P13569 with tags, fused parts or gaps DEL508-508): as above

CCS(=O)(=O)NC(=O)c1cc(-c2cnc(N(C)C)nc2)c2c(C3CN(C(=O)OC)C3)nn(C3CCCCC3)c2n1 [compound 52]
EC50 (ΔF508-CFTR): 11500 nM

CCS(=O)(=O)NC(=O)c1cc(-c2ccc(OC)cc2)c2c(C)nn(-c3ccccc3)c2n1 [compound 15]
% Activation (ΔF508-CFTR): 151.675%

CN(C)S(=O)(=O)NC(=O)c1cc(N2CCC(CN3CCOCC3)CC2)c2c(C3CCC3)nn(-c3ccc(F)cc3)c2n1 [compound 409]
% Activation (ΔF508-CFTR): 272.74%

COCC1CCN(c2cc(C(=O)NS(=O)(=O)CCO)nc3c2c(C2CCC2)nn3-c2ccccc2)CC1 [Compound 366, 3-cyclobutyl-N-(2-hydroxyethanesulfonyl)-4-[4-(methoxymethyl)piperidin-1-yl]-1-phenyl-1H-pyrazolo[3,4-b]pyridine-6-carboxamide]
activity at 1 µM (CFTR ΔF508; [1]): 428%

CS(=O)(=O)NC(=O)c1cc(N2CCC(CCN3CCOCC3)CC2)c2c(C3CCC3)nn(-c3ccccc3)c2n1 [Compound 331, 3-cyclobutyl-N-(methanesulfonyl)-4-{4-[2-(morpholin-4-yl)ethyl]piperidin-1-yl}-1-phenyl-1H-pyrazolo[3,4-b]pyridine-6-carboxamide]
activity at 1 µM (CFTR ΔF508; [1]): 537%

COCCS(=O)(=O)NC(=O)c1cc(-c2ccc(CN3CCOCC3)cc2)c2c(OC(C)C)nn(C3CCCCC3)c2n1 [compound 405]
% Activation (ΔF508-CFTR): 181.2%

CCS(=O)(=O)N(C)C(=O)c1cc(N2CCC(N3CCOCC3)CC2)c2c(C3CCC3)nn(-c3ccccc3)c2n1 [Compound 658, 3-cyclobutyl-N-(ethanesulfonyl)-N-methyl-4-[4-(morpholin-4-yl)piperidin-1-yl]-1-phenyl-1H-pyrazolo[3,4-b]pyridine-6-carboxamide]
activity at 3 µM (CFTR ΔF508): 260%

COCC1CCN(Cc2cc(C(=O)NS(=O)(=O)N(C)C)nc3c2c(C2CCC2)nn3-c2ccc(F)cc2)CC1 [compound 521]
EC50 (ΔF508-CFTR): 10000 nM

CS(=O)(=O)NC(=O)c1cc(-c2ccc(N3CCC(C#N)CC3)nc2)c2c(C3CCC3)nn(-c3ccccc3)c2n1 [Compound 71, 4-[6-(4-cyanopiperidin-1-yl)pyridin-3-yl]-3-cyclobutyl-N-(methanesulfonyl)-1-phenyl-H-pyrazolo[3,4-b]pyridine-6-carboxamide]
activity at 1 µM (CFTR ΔF508; read-out: % Activity at 1 μM (Ieq*)): 270%

O=C(NS(=O)(=O)N1CCOCC1)c1cc(N2CCC(N3CCOCC3)CC2)c2c(C3CCC3)nn(-c3ccccc3)c2n1 [Compound 383, 3-cyclobutyl-N-(morpholine-4-sulfonyl)-4-[4-(morpholin-4-yl)piperidin-1-yl]-1-phenyl-1H-pyrazolo[3,4-b]pyridine-6-carboxamide]
activity at 3 µM (CFTR ΔF508): 299%

COCC1CCN(c2cc(C(=O)N(C)S(C)(=O)=O)nc3c2c(C2CCC2)nn3-c2ccccc2)CC1 [Compound 657, 3-cyclobutyl-N-(methanesulfonyl)-4-[4-(methoxymethyl)piperidin-1-yl]-N-methyl-1-phenyl-1H-pyrazolo[3,4-b]pyridine-6-carboxamide]
activity at 3 µM (CFTR ΔF508): 358%

COCC1CCN(c2cc(C(=O)NS(C)(=O)=O)nc3c2c(C2CCC2)nn3-c2ccccc2)CC1 [Compound 185, 3-cyclobutyl-N-(methanesulfonyl)-4-[4-(methoxymethyl)piperidin-1-yl]-1-phenyl-1H-pyrazolo[3,4-b]pyridine-6-carboxamide]
activity at 1 µM (CFTR ΔF508; [1]): 453%

Cc1nn(C2CCCCC2)c2nc(C(=O)NS(=O)(=O)C3CC3)cc(-c3ccc(N4CCOCC4)cc3)c12 [compound 239]
EC50 (ΔF508-CFTR): 99.2 nM

CC(C)N1CCN(C2CCN(c3cc(C(=O)NS(=O)(=O)N(C)C)nc4c3c(C3CCC3)nn4-c3ccc(F)cc3)CC2)CC1 [compound 382]
EC50 (CFTR ΔF508): 100 nM

CS(=O)(=O)NC(=O)c1cc(N2CC3(CCOCC3)C2)c2c(C3CCC3)nn(-c3ccccc3)c2n1 [compound 204]
EC50 (ΔF508-CFTR): 978 nM

COCC1CN(C2CCN(c3cc(C(=O)NS(=O)(=O)N(C)C)nc4c3c(C3CCC3)nn4-c3ccc(F)cc3)CC2)CCO1 (stereo not drawn) [Compound 379, 3-cyclobutyl-N-(dimethylsulfamoyl)-1-(4-fluorophenyl)-4-{4-[2-(methoxymethyl)morpholin-4-yl]piperidin-1-yl}-1H-pyrazolo[3,4-b]pyridine-6-carboxamide]
activity at 1 µM (CFTR ΔF508; [1]): 370%

O=C(NS(=O)(=O)N1CCOCC1)c1cc(N2CCC(CN3CCCC3)CC2)c2c(C3CCC3)nn(-c3ccccc3)c2n1 [Compound 380, 3-cyclobutyl-N-(morpholine-4-sulfonyl)-1-phenyl-4-{4-[(pyrrolidin-1-yl)methyl]piperidin-1-yl}-1H-pyrazolo[3,4-b]pyridine-6-carboxamide]
activity at 3 µM (CFTR ΔF508): 250%

CNS(=O)(=O)NC(=O)c1cc(N2CCC(N3CCOCC3)CC2)c2c(C3CCC3)nn(-c3ccc(F)cc3)c2n1 [Compound 517, 3-cyclobutyl-1-(4-fluorophenyl)-N-(methylsulfamoyl)-4-[4-(morpholin-4-yl)piperidin-1-yl]-H-pyrazolo[3,4-b]pyridine-6-carboxamide]
activity at 3 µM (CFTR ΔF508): 309%

CN(C(=O)c1cc(N2CCC(N3CCOCC3)CC2)c2c(C3CCC3)nn(-c3ccccc3)c2n1)S(C)(=O)=O [Compound 656, 3-cyclobutyl-N-(methanesulfonyl)-N-methyl-4-[4-(morpholin-4-yl)piperidin-1-yl]-1-phenyl-1H-pyrazolo[3,4-b]pyridine-6-carboxamide]
activity at 3 µM (CFTR ΔF508): 198%

CN(C)S(=O)(=O)NC(=O)c1cc(C2CCN(CC3CC3)CC2)c2c(C3CCC3)nn(-c3ccc(F)cc3)c2n1 [compound 613]
EC50 (ΔF508-CFTR): 10000 nM

CC(C)c1nn(C2CCCCC2)c2nc(C(=O)NS(C)(=O)=O)cc(-c3ccc(N4CCC(F)(F)C4)nc3)c12 [compound 64]
EC50 (ΔF508-CFTR): 835 nM

CC(C)N1CCC(c2cc(C(=O)NS(=O)(=O)N(C)C)nc3c2c(C2CCC2)nn3-c2ccc(F)cc2)CC1 [compound 598]
EC50 (ΔF508-CFTR): 10000 nM

CC(C)Oc1nn(C2CCCCC2)c2nc(C(=O)NS(C)(=O)=O)cc(-c3ccc(C(=O)N4CC5CNCC5C4)cc3)c12 (stereo not drawn) [Compound 631, 1-cyclohexyl-4-[4-(hexahydropyrrolo[3,4-c]pyrrole-2(1H)-carbonyl)phenyl]-N-(methanesulfonyl)-3-[(propan-2-yl)oxy]-1H-pyrazolo[3,4-b]pyridine-6-carboxamide]
activity at 1 µM (CFTR ΔF508; [1]): 157%

CS(=O)(=O)NC(=O)c1cc(N2CCC(N3CCOCC3)CC2)c2c(C3CCC3)nn(-c3ccccc3)c2n1 [Compound 328, 3-cyclobutyl-N-(methanesulfonyl)-4-[4-(morpholin-4-yl)piperidin-1-yl]-1-phenyl-1H-pyrazolo[3,4-b]pyridine-6-carboxamide]
activity at 1 µM (CFTR ΔF508; [1]): 532%
activity at 3 µM (CFTR ΔF508): 423%

CN(C)S(=O)(=O)NC(=O)c1cc(OCC2CCOCC2)c2c(C3CCC3)nn(-c3ccccc3)c2n1 [compound 334]
EC50 (CFTR ΔF508): 100 nM

CS(=O)(=O)NC(=O)c1cc(N2CCC(N3CCCCC3)CC2)c2c(C3CCC3)nn(-c3ccccc3)c2n1 [Compound 365, 4-([1,4′-bipiperidin]-1′-yl)-3-cyclobutyl-N-(methanesulfonyl)-1-phenyl-1H-pyrazolo[3,4-b]pyridine-6-carboxamide]
activity at 3 µM (CFTR ΔF508): 522%
